The source of these data is US20100056507A1, “PHENYL DERIVATIVES AND THEIR USE AS A MEDICAMENT” (IPSEN PHARMA S.A.S., priority 2006, published 2010).

Structures can show the parent of a compound that is named as a salt. Where two headings read alike, the source gives them in different places. Where only a bound is given, the exact number is not on record here.

In this assay the target is T1, human CB2 receptors (Homo sapiens, UniProt P34972).
T1 construct: expressed in transfected cells; membranes used
T1 sequence (P34972 whole entry): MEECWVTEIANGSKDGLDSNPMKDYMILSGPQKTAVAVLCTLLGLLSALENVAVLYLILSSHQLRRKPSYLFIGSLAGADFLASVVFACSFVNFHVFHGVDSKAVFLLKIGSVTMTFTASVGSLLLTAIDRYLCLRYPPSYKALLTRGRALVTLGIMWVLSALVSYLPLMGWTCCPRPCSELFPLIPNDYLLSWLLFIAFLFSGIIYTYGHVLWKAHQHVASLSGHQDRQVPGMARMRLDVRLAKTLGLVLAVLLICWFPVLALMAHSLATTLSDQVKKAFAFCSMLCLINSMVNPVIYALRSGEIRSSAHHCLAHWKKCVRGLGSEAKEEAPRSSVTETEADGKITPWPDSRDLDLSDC
Briefly: Affinity for the human CB2 cannabinoid receptors: inhibition of [3H]-CP55940 binding to transfected CHO-K1 cell membranes. The note with it: [3H]-CP55940 1 nM, CHO-K1 membranes expressing human CB2, Cheng-Prusoff correction. The method, then:
The affinity of the compounds of the invention for the human CB2 receptors is determined by measuring the inhibition of the binding of [^3H]-CP55940 to transfected CHO-K1 cell membrane preparations.
The cells are collected with 0.5 mM of EDTA and centrifuged at 500 g for 5 minutes at 4° C. The pellet is re-suspended in phosphate buffered saline medium (PBS) and centrifuged at 500 g for 5 minutes at 4° C. The pellet is re-suspended in a Tris 50 mM buffer medium at pH 7.4 and centrifuged at 500 g for 5 minutes at 4° C. The cells are lysed by sonication and centrifuged at 39,000 g for 10 minutes at 4° C. The pellet is re-suspended in the Tris 50 mM buffer medium at pH 7.4 and centrifuged at 50,000 g for 10 minutes at 4° C. The membranes obtained in this last pellet are stored at −80° C.
Measurement of the competitive inhibition of the binding of the [^3H]-CP55940 to the CB2 receptors is carried out in duplicate using 96-well polypropylene plates. The cell membranes (10 μg of proteins/well) are incubated with the [^3H]-CP55940 (1 nM) for 60 minutes at 25° C. in a Tris-HCl 50 mM buffer medium, pH 7.4, comprising 0.1% bovine serum albumin (BSA), 5 mM of MgCl2, and 50 μg/ml of bacitracin.
The filters are washed with Tris-HCl 50 mM buffer, pH 7.4 at 0-4° C. and the radioactivity present is determined using a counter (Packard Top Count).
The specific binding is obtained by subtracting the non-specific binding (determined in the presence of 0.1 μM of WIN55212-2 from the total binding). The data are analyzed by computer-assisted non-linear regression (MDL). For each test, a Cheng-Prusoff correction is made in order to convert the IC50 to the inhibition constant, Ki.
where [L] is the concentration of the radioligand used in the test and Kd is the radioligand equilibrium disassociation constant.

`CC1(C)CCC(C)(C)c2cc(C(=O)OCCc3ccc(NC(=O)C4CCC4)cc3)ccc21` [Example 1, 2-{4-[(cyclobutylcarbonyl)amino]phenyl}ethyl 5,5,8,8-tetramethyl-5,6,7,8-tetrahydronaphthalene-2-carboxylate]: the inhibitory constant (Ki) is below 0.5 µM (read-out: Ki < 0.5 μM) and below 5 µM (read-out: Ki < 5 μM).
Consider `CC(C)(C)c1cc(-c2nnc(Cc3ccc(/N=C(/N)c4cccs4)cc3)o2)cc(C(C)(C)C)c1` [Example 2], for which the Ki is, setting by setting: (read-out: Ki < 0.5 μM) below 0.5 µM; (read-out: Ki < 5 μM) below 5 µM.
For `CC1(C)CCC(C)(C)c2cc(C(=O)OCc3ccc(C(=O)NC4CCC4)cc3)ccc21` [Example 3], the Ki by setting is: (read-out: Ki < 0.5 μM) below 0.5 µM; (read-out: Ki < 5 μM) below 5 µM.
In the case of `O=C(OCCc1ccc(NC(=O)C2CCC2)cc1)c1ccc2c(c1)OCCO2` [Example 4], the inhibition constant (Ki) (read-out: Ki < 5 μM) is below 5 µM.
Take `CC(C)(C)c1cc(-c2nc(Cc3ccc(/N=C(/N)c4cccs4)cc3)no2)cc(C(C)(C)C)c1` [Example 5]: the Ki by setting is: (read-out: Ki < 0.5 μM) below 0.5 µM; (read-out: Ki < 5 μM) below 5 µM.
Consider `CC1(C)CCC(C)(C)c2cc(-c3nnc(CCc4ccc(/N=C(/N)c5cccs5)cc4)o3)ccc21` [Example 6, N′-(4-{2-[5-(5,5,8,8-tetramethyl-5,6,7,8-tetrahydronaphthalen-2-yl)-1,3,4-oxadiazol-2-yl]ethyl}phenyl)thiophene-2-carboximidamide hydrochloride], for which the Ki (read-out: Ki < 5 μM) was below 5 µM.
On the same count and under the same terms, the result for `O=C(OCCc1ccc(NC(=O)C2CCC2)cc1)c1ccc2c(c1)C(=O)CCC2` [Example 7] reads below 5 µM.
Take `CN1CCOc2cc(C(=O)OCCc3ccc(NC(=O)C4CCC4)cc3)ccc21` [Example 10]: the inhibition constant (Ki) reads like this: (read-out: Ki < 0.5 μM) below 0.5 µM; (read-out: Ki < 5 μM) below 5 µM.
The like results for `O=C(OCCc1ccc(NC(=O)C2CCC2)cc1)c1ccc2c(c1)CCC2` [Example 11] were, in that order, below 0.5 µM and below 5 µM.
As to `CC(C)(C)c1cc(-c2nnc(Cc3ccc(NC(=O)C4CCC4)cc3)o2)cc(C(C)(C)C)c1` [Example 12], the Ki is below 0.5 µM (read-out: Ki < 0.5 μM) and below 5 µM (read-out: Ki < 5 μM).
The like results for `C=CCNC(=O)Nc1ccc(Cc2nnc(-c3cc(C(C)(C)C)cc(C(C)(C)C)c3)o2)cc1` [Example 13] were, in that order, below 0.5 µM and below 5 µM.
For the compound `CCCNC(=O)Nc1ccc(Cc2nnc(-c3cc(C(C)(C)C)cc(C(C)(C)C)c3)o2)cc1` [Example 14], the inhibition constant (Ki) (read-out: Ki < 0.5 μM) was below 0.5 µM and the inhibition constant (Ki) (read-out: Ki < 5 μM) was below 5 µM.
With `O=C(OCCc1ccc(NC(=O)C2CCC2)cc1)c1ccc2c(c1)CCCC2` [Example 15], the Ki reads like this: (read-out: Ki < 0.5 μM) below 0.5 µM; (read-out: Ki < 5 μM) below 5 µM.
The like results for `CC(C)(C)c1cc(-c2nnc(CCc3ccc(NC(=O)C4CCC4)cc3)o2)cc(C(C)(C)C)c1` [Example 16] were, in that order, below 0.5 µM and below 5 µM.
The like results for `C=CCNC(=O)Nc1ccc(CCc2nnc(-c3cc(C(C)(C)C)cc(C(C)(C)C)c3)o2)cc1` [Example 17] were, in that order, below 0.5 µM and below 5 µM.
In the case of `CCCNC(=O)Nc1ccc(CCc2nnc(-c3cc(C(C)(C)C)cc(C(C)(C)C)c3)o2)cc1` [Example 18], the Ki was below 0.5 µM (read-out: Ki < 0.5 μM) and below 5 µM (read-out: Ki < 5 μM).
As for `CC(C)(C)c1cc(-c2nc(Cc3ccc(NC(=O)C4CCC4)cc3)no2)cc(C(C)(C)C)c1` [Example 19], the Ki is, setting by setting: (read-out: Ki < 0.5 μM) below 0.5 µM; (read-out: Ki < 5 μM) below 5 µM.
Consider `C=CCNC(=O)Nc1ccc(Cc2noc(-c3cc(C(C)(C)C)cc(C(C)(C)C)c3)n2)cc1` [Example 20], for which the Ki (read-out: Ki < 0.5 μM) is below 0.5 µM and the inhibition constant Ki (read-out: Ki < 5 μM) was below 5 µM.
The like results for `CCCNC(=O)Nc1ccc(Cc2noc(-c3cc(C(C)(C)C)cc(C(C)(C)C)c3)n2)cc1` [Example 21] were, in that order, below 0.5 µM and below 5 µM.
On to `CC(C)(C)c1cc(-c2nnc(CCc3ccc(/N=C(/N)c4cccs4)cc3)o2)cc(C(C)(C)C)c1` [Example 22], for which the Ki (read-out: Ki < 0.5 μM) was below 0.5 µM and the Ki (read-out: Ki < 5 μM) is below 5 µM.
On to `CC(C)(C)c1cc(-c2nnc(NCc3ccc(NC(=O)C4CCC4)cc3)o2)cc(C(C)(C)C)c1` [Example 23], for which the inhibition constant Ki (read-out: Ki < 5 μM) was below 5 µM.
Turning to `C=CCNC(=O)Nc1ccc(CNc2nnc(-c3cc(C(C)(C)C)cc(C(C)(C)C)c3)o2)cc1` [Example 24], the Ki was below 0.5 µM (read-out: Ki < 0.5 μM) and below 5 µM (read-out: Ki < 5 μM).
The like results for `CC1(C)CCC(C)(C)c2cc(-c3nnc(NCc4ccc(NC(=O)C5CCC5)cc4)o3)ccc21` [Example 25] were, in that order, below 0.5 µM and below 5 µM.
The like results for `C=CCNC(=O)Nc1ccc(CNc2nnc(-c3ccc4c(c3)C(C)(C)CCC4(C)C)o2)cc1` [Example 26] were, in that order, below 0.5 µM and below 5 µM.
The like results for `CC(C)(C)c1cc(-c2nnc(NCc3ccc(/N=C(/N)c4cccs4)cc3)o2)cc(C(C)(C)C)c1` [Example 27] were, in that order, below 0.5 µM and below 5 µM.
For `CC1(C)CCC(C)(C)c2cc(-c3nnc(NCc4ccc(/N=C(/N)c5cccs5)cc4)o3)ccc21` [Example 28], the Ki (read-out: Ki < 5 μM) is below 5 µM.
With `CCCNC(=O)Nc1ccc(CCOC(=O)c2ccc3c(c2)C(C)(C)CCC3(C)C)cc1` [Example 29, 2-(4-{[(propylamino)carbonyl]amino}phenyl)ethyl 5,5,8,8-tetramethyl-5,6,7,8-tetrahydronaphthalene-2-carboxylate], the inhibition constant (Ki) is, setting by setting: (read-out: Ki < 0.5 μM) below 0.5 µM; (read-out: Ki < 5 μM) below 5 µM.
The like results for `C=CCNC(=O)Nc1ccc(CCOC(=O)c2ccc3c(c2)C(C)(C)CCC3(C)C)cc1` [Example 30] were, in that order, below 0.5 µM and below 5 µM.
Turning to `CC1(C)CCC(C)(C)c2cc(-c3nnc(CCc4ccc(NC(=O)C5CCC5)cc4)o3)ccc21` [Example 31], the Ki by setting is: (read-out: Ki < 0.5 μM) below 0.5 µM; (read-out: Ki < 5 μM) below 5 µM.
The like results for `C=CCNC(=O)Nc1ccc(CCc2nnc(-c3ccc4c(c3)C(C)(C)CCC4(C)C)o2)cc1` [Example 32] were, in that order, below 0.5 µM and below 5 µM.
As to `CCCNC(=O)Nc1ccc(CCc2nnc(-c3ccc4c(c3)C(C)(C)CCC4(C)C)o2)cc1` [Example 33], the Ki was below 0.5 µM (read-out: Ki < 0.5 μM) and below 5 µM (read-out: Ki < 5 μM).
In the case of `O=C(OCCc1ccc(NC(=O)C2CCC2)cc1)c1ccc2c(c1)OCO2` [Example 34], the Ki (read-out: Ki < 5 μM) was below 5 µM.
Take `Cc1cc2c(cc1C(=O)OCCc1ccc(NC(=O)C3CCC3)cc1)C(C)(C)CCC2` [Example 35]: the Ki by setting is: (read-out: Ki < 0.5 μM) below 0.5 µM; (read-out: Ki < 5 μM) below 5 µM.
The like results for `Cc1cc2c(cc1C(=O)OCCc1ccc(NC(=O)C3CCC3)cc1)CCCC2(C)C` [Example 36] were, in that order, below 0.5 µM and below 5 µM.
For `CC1(C)CC(C)(C)c2cc(C(=O)OCCc3ccc(NC(=O)C4CCC4)cc3)ccc21` [Example 37], the Ki is, setting by setting: (read-out: Ki < 0.5 μM) below 0.5 µM; (read-out: Ki < 5 μM) below 5 µM.
Consider `O=C(OCCc1ccc(NC(=O)C2CCC2)cc1)c1ccc2c(c1)C(=O)CC2` [Example 38], for which the Ki (read-out: Ki < 5 μM) was below 5 µM.
Regarding `CC1(C)CCC(C)(C)c2cc(-c3coc(CCc4ccc(NC(=O)C5CCC5)cc4)n3)ccc21` [Example 39, N-(4-{2-[4-(5,5,8,8-tetramethyl-5,6,7,8-tetrahydronaphthalen-2-yl)-1,3-oxazol-2-yl]ethyl}phenyl)cyclobutanecarboxamide], the inhibition constant (Ki) runs as follows: (read-out: Ki < 0.5 μM) below 0.5 µM; (read-out: Ki < 5 μM) below 5 µM.
The like results for `C=CCNC(=O)Nc1ccc(CCc2nc(-c3ccc4c(c3)C(C)(C)CCC4(C)C)co2)cc1` [Example 40] were, in that order, below 0.5 µM and below 5 µM.
As for `CCCNC(=O)Nc1ccc(CCc2nc(-c3ccc4c(c3)C(C)(C)CCC4(C)C)co2)cc1` [Example 41], the Ki by setting is: (read-out: Ki < 0.5 μM) below 0.5 µM; (read-out: Ki < 5 μM) below 5 µM.
On to `CC1(C)CCc2cc(C(=O)OCCc3ccc(NC(=O)C4CCC4)cc3)ccc2O1` [Example 42], for which the Ki is, setting by setting: (read-out: Ki < 0.5 μM) below 0.5 µM; (read-out: Ki < 5 μM) below 5 µM.
The like results for `Cc1cc2c(cc1C(=O)OCCc1ccc(NC(=O)C3CCC3)cc1)C(C)(C)CC(C)C2(C)C` (centres unmarked) [Example 45] were, in that order, below 0.5 µM and below 5 µM.
In the case of `CC(C)(C)c1cc(-c2nnc(CCc3ccc(NC(=O)C4CCC4)cc3)s2)cc(C(C)(C)C)c1` [Example 46], the Ki was below 0.5 µM (read-out: Ki < 0.5 μM) and below 5 µM (read-out: Ki < 5 μM).
The like results for `C=CCNC(=O)Nc1ccc(CCc2nnc(-c3cc(C(C)(C)C)cc(C(C)(C)C)c3)s2)cc1` [Example 47] were, in that order, below 0.5 µM and below 5 µM.
The like results for `CCCNC(=O)Nc1ccc(CCc2nnc(-c3cc(C(C)(C)C)cc(C(C)(C)C)c3)s2)cc1` [Example 48, N-(4-{2-[5-(3,5-di-tert-butylphenyl)-1,3,4-thiadiazol-2-yl]ethyl}phenyl)-N′-propylurea] were, in that order, below 0.5 µM and below 5 µM.
The like results for `Cc1cc2c(cc1C(=O)OCCc1ccc(NC(=O)C3CCC3)cc1)C(C)(C)CCC2(C)C` [Example 49] were, in that order, below 0.5 µM and below 5 µM.

One may read the Ki as the equilibrium dissociation constant of an inhibitor or competing ligand from its target.
